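How tested: cells in 96-well plates exposed to compound for 48 hours at five concentrations. The concentration for 50% growth inhibition is given as GI50. Definition used: TGI = concentration required for complete inhibition of growth.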 Where a SMILES comes first, the peptide text is derived from it. [ ]: non-standard residue; d: D form. The star is where a group is joined. X28 = COC1=CC(=O)N(C(=O)[C@@H](O*)C(C)C)[C@H]1Cc1ccccc1; Bn2Val = CC(C)[C@@H](C(=O)*)N(Cc1ccccc1)Cc1ccccc1; NMeV = CN[C@H](C(=O)O)C(C)C; dNMeA = CN[C@H](C)C(=O)O
Assays:
Experiment in all cases: DTP human tumour cell line panel, 48 h
SF-539 CNS = tested on: SF-539 CNS
OVCAR-5 ovarian = tested on: OVCAR-5 ovarian
MDA-MB-435 = tested on: MDA-MB-435
SR leukemia = tested on: SR leukemia
HCC-2998 colon = tested on: HCC-2998 colon
CCRF-CEM leukemia = tested on: CCRF-CEM leukemia
IGROV1 ovarian = tested on: IGROV1 ovarian
RXF 393 renal = tested on: RXF 393 renal

Compound	TGI (SF-539 CNS) [µM]	TGI (OVCAR-5 ovarian) [µM]	TGI (MDA-MB-435) [µM]	TGI (SR leukemia) [µM]	TGI (HCC-2998 colon) [µM]	TGI (CCRF-CEM leukemia) [µM]	TGI (IGROV1 ovarian) [µM]	TGI (RXF 393 renal) [µM]	GI50 (SF-539 CNS) [nM]	GI50 (OVCAR-5 ovarian) [nM]	GI50 (MDA-MB-435) [nM]	GI50 (RXF 393 renal) [nM]	GI50 (SR leukemia) [nM]	GI50 (HCC-2998 colon) [µM]	GI50 (IGROV1 ovarian) [nM]
O=C(CNc1nccs1)Nn1cnc2ccc(S(=O)(=O)Nc3nccs3)cc2c1=O	> 100	> 100	> 100	> 100	> 100	> 100	> 100								
C=CC(C)(C)C1(CC(OC)OC)C(=O)N(C)c2ccccc21 (stereo not given)		> 25	> 25	> 25	> 25	> 25		> 25							
CCCCC(=C=C(C)CO)C1CCCN1C(=O)OC(C)(C)C (stereo not given)	34.5	39.9	35.8	31.5	20.3	33.2	43.6	29.4							
COC1=CC(=O)N(C(=O)[C@@H](OC(=O)[C@@H](C)N(C)C(=O)[C@@H]2CCCN2C(=O)[C@H](C(C)C)N(C)C(=O)[C@@H](NC(=O)[C@H](C(C)C)N(Cc2ccccc2)Cc2ccccc2)C(C)C)C(C)C)[C@H]1Cc1ccccc1 (Bn2Val-V[NMeV]P[dNMeA]-X28)	> 100	> 100	> 100	> 100	> 100	> 100	> 100	> 100							
CCCCOc1c(C(=O)O)cc(Br)cc1C(=O)O	> 100	> 100	> 100		> 100		> 100	> 100							
CC1(C)Oc2ccc3c(=O)cc(-c4cccs4)oc3c2C1C(=O)O (stereo not given)	> 100	> 100	> 100	> 100	> 100	> 100	> 100	> 100							
O=C(O)CN1CCCC(Cc2c[nH]c3ccccc23)C1 (stereo not given)	> 100	> 100	> 100		> 100		> 100	> 100							
N/C(=N\S(=O)(=O)c1ccc(-c2ccccn2)s1)Nc1ccc(Cl)cc1	29.7	40.2		53.1			34.1	35.3							
O=C(N/N=C\c1cccs1)c1ccncc1	> 100	> 100	> 100	> 100	> 100	> 100	> 100	> 100							
CNC(=O)c1cc2nc3ccccc3c(=O)n2c2ccccc12	> 10	> 10	> 10	> 10	> 10	> 10	> 10	> 10							
CC(=O)NNC(=S)/N=C\c1c(O)c2ccccc2oc1=O	> 100	> 100	> 100	> 100	> 100	> 100	> 100	> 100							
N#C/C=c1/c2ccccc2n2nc3ccccc3c12	37.6	> 100	> 100	> 100	> 100	> 100	58.3	58.6							
COc1ccc(OC)c(NC2=NCCO2)c1	> 100	> 100	> 100	> 100	> 100	> 100	> 100	> 100							
CC(C)NCC(O)c1ccc(O)c2ncccc12 (stereo not given)	> 100	> 100	> 100	67.6	> 100		> 100	> 100							
Cc1nc(N)sc1C(=O)Nc1ncn[nH]1	> 100	> 100	> 100	70	> 100		> 100	> 100							
CCn1c(-c2ccc(OC)cc2)nc2c1C(=O)c1ccccc1C2=O	> 100	> 100	> 100	> 100	> 100	> 100	> 100	> 100							
Cn1cc(-c2nc(-c3c[nH]c4ccncc34)cs2)c2ccccc21	3.26	3.18	3.32						1780	1760	1790				
O=C(OCC1CCCN2CCCCC12)c1cccnc1 (stereo not given)	> 100		> 100		> 100	> 100		> 100							
Cc1ccc(S(=O)(=O)NC(=O)NCCc2ccc(O)c(O)c2)cc1	> 100	> 100	> 100	> 100	> 100		> 100	> 100							
Cc1ccc2n(c1)cc(-c1ccc(/C=N/NC(=N)N/N=C/c3ccc(-c4cn5cc(C)ccc5[n+]4C)cc3)cc1)[n+]2C	> 100	> 100	> 100	> 100	> 100	> 100	> 100								
C=CCNc1nc(O)c(/C=C2\C=Nc3ncccc32)s1	2.06	> 100	4.96	88.3	58.5		> 100	4.25	524	2660	1940	2070	408	3.4	2860
C=C1C(=O)[C@]23C[C@H]1C[C@@H](O)[C@H]2[C@]1(COC3=O)[C@@H](OC(C)=O)CC[C@@](C)(COC(C)=O)[C@H]1C=O		> 50	> 50	> 50	> 50	15.1	> 50	> 50							
COC(=O)CCCC1(CCCC(=O)OC)CCCCCCCCC(CCCC(=O)OC)(CCCC(=O)OC)C(=O)C1=O	61.3	> 100	> 100	85.5	> 100		47.6	69.9							
c1ccc2[nH]c3c(N=NC4=NCCN4)c4ccccc4c-3nc2c1	20.2		21.8	> 100	14.9	> 100	> 100	14.3							
C[C@@H](NC(=O)[C@@H]1C[C@]1(C)CO)c1cccc2ccccc12		> 100	> 100	> 100	> 100	> 100	> 100	> 100							
CCOC(=O)CCC(NC(=O)c1ccc(Nc2nc3cc(C(F)(F)F)ccc3nc2C(=O)OCC)cc1)C(=O)OCC (stereo not given)	25.2	39.5	21.9	> 100	> 100	> 100	43.5								
